Data: patent US20250325535A1, “IDENTIFICATION OF NOVEL SMALL-MOLECULE INHIBITORS OF SARS-CoV-2 BY CHEMICAL GENETICS” (The University of Hong Kong, priority 2024, published 2025)

Legend:
[1] = in vitro; format: cell-based; settings: African green monkey
Method: (§1) FIG. 9. MTT cytotoxicity assays of SMART™ finalized hits compounds on VeroE6 cells. VeroE6 cells are treated with compounds of interest diluted from 100 μM to 0.78 μM in a 2-fold interval and incubate for 72 hours.
(§2) Briefly, cells are seeded onto a 96-well plate at a density of 20,000 cells per well one day before treatment. On the following day, compounds of interest are added to the cells in gradient concentrations and incubated at 37° C. with 5% CO2 for either 48 or 96 hours. After medium removal, 100 μL of 1×MTT solution in plain DMEM is added to the cells and incubated at 37° C. with 5% CO2 for 3-4 hours. Then, MTT lysis buffer (10% SDS/10 mM HCl) is added to the cells and incubated at room temperature for 3-4 hours. Cell viability is measured in absorbance (OD595) using a plate reader (Glomax, Promega).

[2] = system: VeroE6 cells; assay: in vitro; format: cell-based; settings: African green monkey, 72 h, 100 μM
Method: as §1, §2

[3] = system: MERS-CoV; format: cell-based
[4] = system: HCoV-229E; format: cell-based
[5] = system: SARS-CoV; format: cell-based
[6] = system: recombinant WT SARS-CoV-2; assay: microbe, parasite or virus in culture; format: cell-based; settings: for IC50: Severe acute respiratory syndrome coronavirus 2, recombinant WT virus, read-out: IC50 (plaque formation assay)
[7] = system: Caco-2 cells; format: in vitro ADME
Method: Caco-2 cells are seeded onto 0.4 μm pore polycarbonate membranes (PC) in 96-well Corning Insert plates at a density of 3.5×10^4 cells/cm2.HBSS with 10.0 mM HEPES at pH 7.40±0.05 as the transport buffer. The compound is subjected to bidirectional testing in triplicate at 2.00 μM. The plate is incubated in a CO2 incubator with 5% CO2 at 37.0° C. and saturated humidity for two hours without shaking. All samples are centrifuged at 3220 g for 10 minutes after being combined with acetonitrile containing internal standard. Using the peak area ratio of the analyte/internal standard, LC-MS/MS techniques are used to quantify the concentrations of the compound in the beginning solution, donor solution, and recipient solution. Following transportation, lucifer yellow rejection assay is applied to determine the Caco-2 cell monolayer integrity.
For data analysis, Permeability (Papp), efflux ratio and Percent recovery are calculated using the following equations: […]

[8] = format: in vitro ADME, CD-1 mouse or human; settings: microsomes
Method: Mouse and Human Liver Microsomes are respectively provided by RILD and coming. They are collected from CD-1 mouse or human and prepared in 100 mM potassium phosphate buffer. […] Aliquots are sampled at 0, 5, 15, 30, 45, and 60 min for LC-MS/MS analysis.

[9] = system: Wild Type SARS-CoV-2; assay: Golden Syrian hamster experiment; format: in vivo
[10] = system: 44 selected host targets including 24 GPCRs, 8 ion channels, 7 enzymes, 3 monoamine transporters, and 2 nuclear hormone receptors; settings: 10 μM
[11] = Balb/c mouse, single intraperitoneal 5 mg/kg

Row | Compound | CC50 at 72 h [1] [nM] | cell viability in MTT assay [2] | reduction in normalized expression of N gene in cell lysate [3] [log10] | viral RNA reduction in supernatant [4] | reduction of SARS-CoV viral load [5] [log 10] | IC50 [6] [nM] | permeability [7] | metabolic stability [8] | viral yield reduction in lung and nasal turbinate vs control group ([9]; 1 mg/kg IP at 12-hour intervals, day 3) [log 10] | off-target effects on host proteins [10] | Cmax [11] [µM] | protection (viral yield reduction) in animal lungs ([9]; Nirmatrelvir 200 mg/kg IP, Pelitinib oral 10 mg/kg, 12-hour intervals) [log 10] | inhibition of virus replication ([6]; WT virus) | protection (viral yield reduction) in animal lungs ([9]; in vivo)
1 | Cc1ccc(C2C3=C(CC(c4ccccc4)CC3=O)NC3=C2C(=O)c2ccccc23)cc1 (stereo not shown) [Compound 172, 10-(4-methylphenyl)-7-phenyl-6,7,8,10-tetrahydro-5H-indeno[1,2-b]quinoline-9,11-dione] | > 100000 | over 90% | > 5 | more than 3 log 10 | 1 | 3880 | moderate | moderate | 1 | no significant off-target effects | 6.89 |  |  | 
2 | CC(C)(C)[C@H](NC(=O)C(F)(F)F)C(=O)N1C[C@H]2[C@@H]([C@H]1C(=O)N[C@H](C#N)C[C@@H]1CCNC1=O)C2(C)C [Nirmatrelvir] |  |  |  |  |  | 18.4 |  |  |  |  |  | > 4 |  | 
3 | CCOc1cc2ncc(C#N)c(Nc3ccc(F)c(Cl)c3)c2cc1NC(=O)/C=C/CN(C)C [Pelitinib] |  |  |  |  |  | 1620 |  |  |  |  |  |  | dose-dependent inhibition of WT virus replication | marginal
